Experimental data published in patent US8044023B2, “Hepatitis C virus inhibitors” (Bristol-Myers Squibb Company, priority 2008, dated 2011).

Assays:
NS3/4A BMS Strain = NS3/4A BMS Strain (UniProt P27958); test: HCV NS3/4A protease complex enzyme assay; format: biochemical, Hepatitis C virus
Experimental: (§1) HCV NS3/4A protease complex enzyme assays and cell-based HCV replicon assays can be utilized in the present disclosure, and can be prepared, conducted and validated as described in the art (see, for Example, WO 2008/064061).
(§2) Compound 1 was tested as described above and found to have an IC50 (NS3/4A BMS Strain) of 4 nM. The EC50 is 5 nM.

HCV replicon = test: cell-based HCV replicon assay; details: Hepatitis C virus
Experimental: as §1, §2

NS3/4A BMS Strain, sequence (P27958 1027-1657): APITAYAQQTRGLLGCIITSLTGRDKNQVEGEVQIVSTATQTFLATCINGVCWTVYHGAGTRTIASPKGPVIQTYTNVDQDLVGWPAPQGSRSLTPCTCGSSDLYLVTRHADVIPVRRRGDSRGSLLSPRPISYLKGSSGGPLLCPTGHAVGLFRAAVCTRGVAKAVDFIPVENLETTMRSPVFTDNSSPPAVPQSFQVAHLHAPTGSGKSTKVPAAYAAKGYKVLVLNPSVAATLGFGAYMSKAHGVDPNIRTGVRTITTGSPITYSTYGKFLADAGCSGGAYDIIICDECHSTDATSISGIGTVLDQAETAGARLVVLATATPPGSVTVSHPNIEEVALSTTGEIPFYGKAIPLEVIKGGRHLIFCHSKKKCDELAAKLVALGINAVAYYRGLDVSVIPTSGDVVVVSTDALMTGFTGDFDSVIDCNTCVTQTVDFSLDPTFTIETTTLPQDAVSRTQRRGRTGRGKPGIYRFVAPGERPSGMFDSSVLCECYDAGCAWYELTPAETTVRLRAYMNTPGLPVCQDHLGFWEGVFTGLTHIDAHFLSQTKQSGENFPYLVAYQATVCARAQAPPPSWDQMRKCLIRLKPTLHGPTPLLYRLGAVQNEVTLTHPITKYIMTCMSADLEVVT

In the case of `CCCCS[C@@]1(c2ccc(-c3ccccc3)cc2)C[C@H]2C(=O)N[C@]3(C(=O)NS(=O)(=O)C4CC4)C[C@H]3/C=C\CCCCC[C@H](NC(=O)OC(C)(C)C)C(=O)N2C1` [Compound 1, tert-butyl (2R,6S,13aS,14aR,16aS,Z)-2-(biphenyl-4-yl)-2-(butylthio)-14a-(cyclopropylsulfonylcarbamoyl)-5,16-dioxo-1,2,3,5,6,7,8,9,10,11,13a,14,14a,15,16,16a-hexadecahydrocyclopropa[e]pyrrolo[1,2-a][1,4]diazacyclopentadecin-6-ylcarbamate], the IC50 (NS3/4A BMS Strain) is reported as 4 nM and the EC50 (HCV replicon) is reported as 5 nM.
